Reference: PubChem BioAssay (NCI)
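Interpolation was linear, between the two tested concentrations surrounding the appropriate level; five concentrations were tested over 48 hours in 96-well plates. GI50: concentration for 50% inhibition of growth. TGI: total growth inhibition.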

Tests used:
Assay in all cases: NCI-60 cell line screen, 48 h
RXF 393 renal = system: RXF 393 renal
OVCAR-5 ovarian = system: OVCAR-5 ovarian
SK-MEL-28 melanoma = system: SK-MEL-28 melanoma
LOX IMVI melanoma = system: LOX IMVI melanoma
SF-295 CNS = system: SF-295 CNS
M14 melanoma = system: M14 melanoma
HCT-116 colon = system: HCT-116 colon
SF-539 CNS = system: SF-539 CNS
RPMI-8226 leukemia = system: RPMI-8226 leukemia
HCT-15 colon = system: HCT-15 colon

Structure (SMILES)	TGI (RXF 393 renal)	TGI (OVCAR-5 ovarian)	TGI (SK-MEL-28 melanoma)	TGI (LOX IMVI melanoma)	TGI (SF-295 CNS)	TGI (M14 melanoma)	TGI (HCT-116 colon)	TGI (SF-539 CNS)	TGI (RPMI-8226 leukemia)	TGI (HCT-15 colon)	GI50 (OVCAR-5 ovarian)	GI50 (SK-MEL-28 melanoma)	GI50 (LOX IMVI melanoma)	GI50 (SF-295 CNS)	GI50 (HCT-15 colon)	GI50 (M14 melanoma)	GI50 (HCT-116 colon)	GI50 (SF-539 CNS)	GI50 (RPMI-8226 leukemia)	GI50 (RXF 393 renal)
CC1=C(/C=C/C2=CC(=C\C(=O)O)/CC(C3=C(C)CCCC3(C)C)C2)C(C)(C)CCC1 (stereo not drawn)	22.6 µM	29.9 µM	29.5 µM	27.6 µM	22 µM	28.5 µM	37 µM	30.6 µM	27 µM	–	–	–	–	–	–	–	–	–	–	–
CC1Cc2c(N)nc(N3CCOCC3)nc2NC1=O (stereo not drawn)	> 100 µM	–	> 100 µM	> 100 µM	> 100 µM	> 100 µM	> 100 µM	> 100 µM	> 100 µM	> 100 µM	–	–	–	–	–	–	–	–	–	–
CCCC1C(=O)C(CC)Cc2c(OC)ccc(OC)c21 (stereo not drawn)	> 100 µM	> 100 µM	> 100 µM	> 100 µM	> 100 µM	> 100 µM	–	> 100 µM	> 100 µM	> 100 µM	–	–	–	–	–	–	–	–	–	–
CN(C)Cc1cccc(CN(C)C)[c]1[Sn]([Br])([c]1ccccc1)[c]1ccccc1	–	32.5 µM	35.2 µM	20.3 µM	32.1 µM	30.6 µM	17.3 µM	30.3 µM	6.86 µM	29.4 µM	16.7 µM	14.5 µM	6.25 µM	14.8 µM	14.5 µM	15.9 µM	4.31 µM	15.2 µM	2.29 µM	–
Cc1ccc(C(=O)CCC2C(=O)CC(C)(C)CC2=O)cc1	> 100 µM	> 100 µM	> 100 µM	> 100 µM	> 100 µM	> 100 µM	> 100 µM	> 100 µM	–	> 100 µM	–	–	–	–	–	–	–	–	–	–
COc1cccc(-c2nc(-c3ccc(NC(=O)c4ccccc4)cc3)[nH]c2-c2ccnc(Br)c2)c1	0.81 µM	> 100 µM	> 100 µM	2.69 µM	–	> 100 µM	> 100 µM	12.6 µM	2.11 µM	3.28 µM	6.09 µM	3 µM	1.13 µM	–	0.78 µM	2.91 µM	3.29 µM	1.59 µM	0.398 µM	0.266 µM
N#Cc1nn(C2OC(COC(=O)c3ccccc3)C(OC(=O)c3ccccc3)C2OC(=O)c2ccccc2)c2nc[nH]c(=O)c12 (stereo not drawn)	> 100 µM	> 100 µM	> 100 µM	–	> 100 µM	> 100 µM	> 100 µM	> 100 µM	> 100 µM	> 100 µM	–	–	–	–	–	–	–	–	–	–
CC(=O)O[C@H]1CCC2[C@@H]3CCC4Nc5c(cnn5-c5ccccc5)C[C@]4(C)C3CC[C@@]21C (stereo partly drawn)	24.6 µM	60.1 µM	–	25.4 µM	10.7 µM	29.9 µM	27.5 µM	54.9 µM	46.2 µM	47.8 µM	–	–	–	–	–	–	–	–	–	–
c1ccc2c(c1)nnn2CNc1ccc(N2CCOCC2)cc1	> 100 µM	–	> 100 µM	> 100 µM	> 100 µM	> 100 µM	> 100 µM	> 100 µM	> 100 µM	> 100 µM	–	–	–	–	–	–	–	–	–	–
O=C(N/C(=C\c1ccc([N+](=O)[O-])cc1)c1nc2ccc(Cl)cc2[nH]1)c1ccccc1	58.3 µM	74.5 µM	83.7 µM	–	63.8 µM	31.3 µM	–	40.7 µM	–	31.2 µM	–	–	–	–	–	–	–	–	–	–
COc1cc([C@@H]2c3cc4c(cc3[C@H](OC(C)=O)[C@H]3COC(=O)[C@H]23)OCO4)cc(OC)c1OC	> 100 µM	> 100 µM	> 100 µM	> 100 µM	> 100 µM	–	–	–	3.19 µM	> 100 µM	0.0533 µM	13.1 µM	0.0293 µM	0.026 µM	0.0316 µM	–	–	–	0.03 µM	0.0691 µM
Cc1cccc2c1O/C(=C\c1ncc([N+](=O)[O-])n1C)C2=O	–	4.45 µM	0.688 µM	0.387 µM	2.62 µM	0.5 µM	0.422 µM	3.87 µM	2.01 µM	0.318 µM	0.576 µM	0.24 µM	0.092 µM	0.516 µM	0.0874 µM	0.169 µM	0.0557 µM	1.15 µM	0.589 µM	–
C/C=C1\C(=O)O[C@@H]2C1C[C@@H]1O[C@H]2[C@H](C)CCC/C(C)=C/CC[C@@]1(C)O (stereo partly drawn)	6.99 µM	26.8 µM	21.9 µM	21.5 µM	27.6 µM	–	10.1 µM	6.06 µM	> 100 µM	21.8 µM	13.5 µM	0.38 µM	5.8 µM	13.3 µM	5.51 µM	–	2.81 µM	2.52 µM	3.27 µM	2.59 µM
CC1(C)CCC2(C(=O)O)CC[C@]3(C)C(=CCC4C5(C)CC[C@H](OC6OC(C(=O)O)C(O)C(OC7OC(CO)C(O)C(O)C7O)C6OC6OC(CO)C(O)C(O)C6O)C(C)(C)C5CCC43C)C2C1 (stereo partly drawn)	> 100 µM	> 100 µM	–	–	> 100 µM	> 100 µM	> 100 µM	> 100 µM	> 100 µM	> 100 µM	> 100 µM	–	–	31.1 µM	94.6 µM	79.9 µM	> 100 µM	> 100 µM	50.9 µM	> 100 µM
O=C1/C=C/[C@@H](O)[C@@H]2C[C@@H](O)C[C@H]2/C=C/CCC[C@H](CO)O1	5.04 µM	> 100 µM	3.65 µM	3.81 µM	–	> 100 µM	6.54 µM	> 100 µM	> 100 µM	> 100 µM	4.19 µM	0.626 µM	0.832 µM	–	3.62 µM	2.42 µM	2.52 µM	3.7 µM	3.32 µM	1.61 µM
C[C@@H](NC1CCC[C@@H]1O)c1ccccc1 (stereo partly drawn)	> 100 µM	> 100 µM	> 100 µM	> 100 µM	> 100 µM	> 100 µM	> 100 µM	–	> 100 µM	> 100 µM	–	–	–	–	–	–	–	–	–	–
CCCCCCCC(=O)OCC1OC(n2cc(F)c(=O)[nH]c2=O)C(NC(=O)OCc2ccccc2)C(OC(=O)CCCCCCC)C1O (stereo not drawn)	64.2 µM	–	> 100 µM	29.7 µM	> 100 µM	91.7 µM	> 100 µM	74.4 µM	51.2 µM	> 100 µM	–	–	–	–	–	–	–	–	–	–
NCCCn1c2c(c3cc4c(cc3c1=O)OCO4)C(=O)c1ccccc1-2	–	–	–	> 100 µM	1.48 µM	1.1 µM	0.554 µM	–	0.208 µM	1.94 µM	–	–	0.14 µM	0.483 µM	0.554 µM	0.43 µM	–	–	–	–
